Measurements: patent US20130109049A1, “Method of Establishing a Fungal Nail Infection” (NOVABIOTICS LIMITED, priority 2009, published 2013)

System: Candida
Assay: Ex vivo human nail fragment model, treatment of Candida infection
Type: cell-based
Conditions: Experiments 6 and 7; 10% (w/v); 14 d or 28 d, daily
Text: Trichophyton rubrum strain NCPF0118 was obtained from the National Collection of Pathogenic Fungi, Bristol, UK. Clinical isolates of T. rubrum DM2006 1661, T. rubrum DM2006 1358, T. mentagrophytes DM2006 1503, T. mentagrophytes DM2006 1498 were isolated from patients suffering a range of tinea infections and were purchased from Professor Michel Monod (Service de Dermatologie, Université de Lausanne, Switzerland). Clinical isolates of Candida samples were also obtained from patients suffering from Candidal infection.
The procedure was carried out as described for Example 1 above with modifications to the vehicle, and fungal strains used. Each nail was inoculated with 10 μl of a spore suspension of Candida. Following inoculation the nails were treated with 10% (w/v) Novexatin® (NP213) in a vehicle solution of 50% (w/v) PEG 8000 plus 20% (w/v) urea; 10% (w/v) NP339 in a vehicle solution of 50% (w/v) PEG 8000 plus 20% (w/v) urea; 10% (w/v) NP339 in a vehicle solution of water; a control solution of 50% (w/v) PEG 8000 plus 20% (w/v) urea; a control solution of water; a solution of 16 μg/ml Itraconazole® and 1.6% (w/v) DMSO in a vehicle solution of water and a control solution of 1.6% (w/v) DMSO. As for Experiment 1 above, nail fragments were treated daily for up to 28 days. […]
At the end of the treatment period, the nail fragments were placed in sterile 2 ml microcentrifuge tubes containing 450 μl of a suspension broth consisting of Sabouraud's Liquid Medium, pH 5.6, containing approximately 100 mg of sterile zirconia beads (0.5 mm diameter). […] Colonies were counted on dishes that contained between 20 and 200 colonies in total, and the total number of cfu present in each sample was calculated. […] The counts were corrected for the surface area of the nails studied to give cfu/cm^2, transformed to log10 and means and standard errors of the mean were calculated using GraphPad Prism 4 (GraphPad, San Diego, Calif.). […] When very low numbers of colonies were detected, as in Experiment 3, the calculated cfu values are shown in order to indicate trends.

7 to 200-mer (SEQ ID NO: 3) polyarginine [Novexatin® (NP213)]
recoverable fungal growth after treatment: no recoverable fungal growth
